Test results as given in patent US20240050428A1 (Cullgen (Shanghai), Inc., priority 2020, published 2024).
Read-outs that look alike come from different tables or passages of the source.

Experiments:
MOLM-13 cells = assay: Cell viability assay (CellTiter-Glo) in MOLM-13 cells, alone or with gilteritinib; type: cell-based; conditions: MOLM-13 cells, CellTiter-Glo
MV4;11 cells = assay: Cell viability assay (CellTiter-Glo) in MV4;11 cells, alone or with gilteritinib; type: cell-based; conditions: MV4;11 cells, CellTiter-Glo, read-out: MV4
[1] = Homo sapiens, MOLM-13, 72 h, compound alone (without gilteritinib), three days, read-out: MOLM-13 IC50
[2] = Homo sapiens, MOLM-13, 72 h, with gilteritinib 20 nM, three days, read-out: MOLM-13 IC50 gilteritinib
[3] = Homo sapiens, MV4-11, 72 h, compound alone (without gilteritinib), three days, 11 IC50
[4] = Homo sapiens, MV4-11, 72 h, with gilteritinib 10 nM, three days, 11 IC50 gilteritinib
[5] = Homo sapiens, MOLM-13, 72 h, compound with gilteritinib 20 nM, three days, read-out: MOLM-13 IC50 gilteritinib
[6] = Homo sapiens, MV4-11, 72 h, compound with gilteritinib 10 nM, three days, 11 IC50 gilteritinib
[7] = Homo sapiens, 72 h, compound alone (without gilteritinib), three days, read-out: MOLM-13 IC50
[8] = Homo sapiens, 72 h, compound alone (without gilteritinib), three days, 11 IC50

IC50 (MOLM-13 cells; [1]) [nM] | IC50 (MOLM-13 cells; [2]) [nM] | IC50 (MV4;11 cells; [3]) [nM] | IC50 (MV4;11 cells; [4]) [nM] | SMILES | further results
> 1000 | 10 to 100 | 100 to 1000 | 10 to 100 | O=C1CCC(N2C(=O)c3ccc(NCCC[C@H]4C[C@@H](n5cc(-c6cnc7ccc(NC8CCNCC8)cc7n6)cn5)C4)cc3C2=O)C(=O)N1 (stereo partly drawn) [GS-214, 2-(2,6-Dioxopiperidin-3-yl)-5-((3-(cis-3-(4-(7-(piperidin-4-ylamino)quinoxalin-2-yl)-1H-pyrazol-1-yl)cyclobutyl)propyl)amino)isoindoline-1,3-dione] | 
 |  |  |  | O=C1CCC(N2Cc3cc(CNC(=O)C(F)(F)c4ccc(Cl)cc4)ccc3C2=O)C(=O)N1 (stereo not drawn) [CC-90009, reference compound] | IC50 (MOLM-13 cells; with 20 nM gilteritinib, 3 days, read-out: MOLM-13 IC50 gilteritinib): 8.6 nM; IC50 (MOLM-13 cells; without gilteritinib, 3 days, read-out: MOLM-13 IC50): 103 nM; IC50 (MV4;11 cells; with 10 nM gilteritinib, 3 days, 11 IC50 gilteritinib): 7.1 nM; IC50 (MV4;11 cells; without gilteritinib, 3 days, 11 IC50): 54 nM
10 to 100 |  | 10 to 100 |  | C[C@H]1CN(c2ccc3ncc(-c4cnn([C@H]5C[C@H](CCCNc6ccc7c(c6)C(=O)N(C6CCC(=O)NC6=O)C7=O)C5)c4)nc3c2)CCN1 (stereo partly drawn) [GS-576, 2-(2,6-Dioxopiperidin-3-yl)-5-((3-(trans-3-(4-(7-((S)-3-methylpiperazin-1-yl)quinoxalin-2-yl)-1H-pyrazol-1-yl)cyclobutyl)propyl)amino)isoindoline-1,3-dione] | IC50 (MOLM-13 cells; [5]): < 10 nM; IC50 (MV4;11 cells; [6]): < 10 nM
> 1000 |  | > 1000 |  | O=C1CCC(N2C(=O)c3ccc(NCCC[C@H]4C[C@H](n5cc(-c6cnc7ccc(N8C[C@H]9C[C@@H]8CN9)cc7n6)cn5)C4)cc3C2=O)C(=O)N1 (stereo partly drawn) [GS-415, 5-((3-(trans-3-(4-(7-((1R,4R)-2,5-diazabicyclo[2.2.1]heptan-2-yl)quinoxalin-2-yl)-1H-pyrazol-1-yl)cyclobutyl)propyl)amino)-2-(2,6-dioxopiperidin-3-yl)isoindoline-1,3-dione] | IC50 (MOLM-13 cells; [5]): > 1000 nM; IC50 (MV4;11 cells; [6]): > 1000 nM
10 to 100 |  | 10 to 100 |  | Cc1nn(CCCCCCNc2ccc3c(c2)C(=O)N(C2CCC(=O)NC2=O)C3=O)cc1-c1cnc2ccccc2n1 (stereo not drawn) [GS-534, 2-(2,6-Dioxopiperidin-3-yl)-5-((6-(3-methyl-4-(quinoxalin-2-yl)-1H-pyrazol-1-yl)hexyl)amino)isoindoline-1,3-dione] | IC50 (MOLM-13 cells; [5]): < 10 nM; IC50 (MV4;11 cells; [6]): < 10 nM
 |  |  |  | O=C1CCC(N2Cc3cc(NC(=O)Cc4cccc(N5CCC(c6ccccc6)CC5)c4)ccc3C2=O)C(=O)N1 (stereo not drawn) [GS-501, N-(2-(2,6-Dioxopiperidin-3-yl)-1-oxoisoindolin-5-yl)-2-(3-(4-phenylpiperidin-1-yl)phenyl)acetamide] | IC50 (MOLM-13 cells; [7]): < 10 nM; IC50 (MOLM-13 cells; Homo sapiens, 72 h, compound with gilteritinib 20 nM, three days, read-out: MOLM-13 IC50 gilteritinib): < 10 nM; IC50 (MV4;11 cells; [8]): < 10 nM; IC50 (MV4;11 cells; Homo sapiens, 72 h, compound with gilteritinib 10 nM, three days, 11 IC50 gilteritinib): < 10 nM
10 to 100 |  | 10 to 100 |  | O=C1CCC(N2C(=O)c3ccc(NCCC[C@H]4C[C@H](n5cc(-c6cnc7ccc(N8CCN(C9CCC9)CC8)cc7n6)cn5)C4)cc3C2=O)C(=O)N1 (stereo partly drawn) [GS-580, 5-((3-(trans-3-(4-(7-(4-Cyclobutylpiperazin-1-yl)quinoxalin-2-yl)-1H-pyrazol-1-yl)cyclobutyl)propyl)amino)-2-(2,6-dioxopiperidin-3-yl)isoindoline-1,3-dione] | IC50 (MOLM-13 cells; [5]): < 10 nM; IC50 (MV4;11 cells; [6]): < 10 nM
 |  |  |  | O=C1CCC(N2C(=O)c3ccc(NCCNc4cccc(N5CCC(c6ccccc6)CC5)c4)cc3C2=O)C(=O)N1 (stereo not drawn) [GS-366, 2-(2,6-Dioxopiperidin-3-yl)-5-((2-((3-(4-phenylpiperidin-1-yl)phenyl)amino)ethyl)amino)isoindoline-1,3-dione] | IC50 (MOLM-13 cells; [7]): 10 to 100 nM; IC50 (MOLM-13 cells; Homo sapiens, 72 h, with gilteritinib 20 nM, three days, read-out: MOLM-13 IC50 gilteritinib): < 10 nM; IC50 (MV4;11 cells; [8]): 10 to 100 nM; IC50 (MV4;11 cells; Homo sapiens, 72 h, with gilteritinib 10 nM, three days, 11 IC50 gilteritinib): < 10 nM
10 to 100 | < 10 | 10 to 100 | < 10 | O=C1CCC(N2C(=O)c3ccc(NCCC[C@H]4C[C@H](n5cc(-c6cnc7ccc(CN8CCOCC8)cc7n6)c(C6CC6)n5)C4)cc3C2=O)C(=O)N1 (stereo partly drawn) [GS-230, 5-((3-(trans-3-(3-Cyclopropyl-4-(7-(morpholinomethyl)quinoxalin-2-yl)-1H-pyrazol-1-yl)cyclobutyl)propyl)amino)-2-(2,6-dioxopiperidin-3-yl)isoindoline-1,3-dione] | 
> 1000 | > 1000 | > 1000 | > 1000 | O=C1CCC(N2Cc3c(Nc4ccnc(Nc5ccc(CN6CCC(n7cc(-c8cnc9cccc(Br)c9n8)cn7)CC6)cc5)n4)cccc3C2=O)C(=O)N1 (stereo not drawn) [GS-030, 3-(4-((2-((4-((4-(4-(8-Bromoquinoxalin-2-yl)-1H-pyrazol-1-yl)piperidin-1-yl)methyl)phenyl)amino)pyrimidin-4-yl)amino)-1-oxoisoindolin-2-yl)piperidine-2,6-dione] | 
100 to 1000 | < 10 | 10 to 100 | 10 to 100 | O=C1CCC(N2C(=O)c3ccc(NCCC[C@H]4C[C@H](n5cc(-c6cnc7c(N8CCNCC8)cccc7n6)cn5)C4)cc3C2=O)C(=O)N1 (stereo partly drawn) [GS-405, 2-(2,6-Dioxopiperidin-3-yl)-5-((3-(trans-3-(4-(5-(piperazin-1-yl)quinoxalin-2-yl)-1H-pyrazol-1-yl)cyclobutyl)propyl)amino)isoindoline-1,3-dione] | 
> 1000 |  | > 1000 |  | O=C1CCC(N2C(=O)c3ccc(NCCCCCCn4ncc(-c5cnc6ccccc6n5)c4C4CC4)cc3C2=O)C(=O)N1 (stereo not drawn) [GS-553, 5-((6-(5-cyclopropyl-4-(quinoxalin-2-yl)-1H-pyrazol-1-yl)hexyl)amino)-2-(2,6-dioxopiperidin-3-yl)isoindoline-1,3-dione] | IC50 (MOLM-13 cells; [5]): 10 to 100 nM; IC50 (MV4;11 cells; [6]): 10 to 100 nM
> 1000 | > 1000 | > 1000 | > 1000 | O=C(CC12CC(N3CCC(n4cc(-c5cnc6ccccc6n5)cn4)CC3)(C1)C2)NCc1ccc2c(c1)CN(C1CCC(=O)NC1=O)C2=O (stereo not drawn) [GS-130, N-((2-(2,6-dioxopiperidin-3-yl)-1-oxoisoindolin-5-yl)methyl)-2-(3-(4-(4-(quinoxalin-2-yl)-1H-pyrazol-1-yl)piperidin-1-yl)bicyclo[1.1.1]pentan-1-yl)acetamide] | 
100 to 1000 | 10 to 100 | 100 to 1000 | 10 to 100 | O=C1CCC(N2C(=O)c3ccc(NCCC[C@H]4C[C@H](n5cc(-c6cccc(C7CCOCC7)n6)cn5)C4)cc3C2=O)C(=O)N1 (stereo partly drawn) [GS-236, 2-(2,6-Dioxopiperidin-3-yl)-5-((3-(trans-3-(4-(6-(tetrahydro-2H-pyran-4-yl)pyridin-2-yl)-1H-pyrazol-1-yl)cyclobutyl)propyl)amino)isoindoline-1,3-dione] | 
> 1000 | 100 to 1000 | 100 to 1000 | 10 to 100 | O=C1CCC(N2C(=O)c3ccc(NC[C@H]4C[C@H](n5cc(-c6cc7cn[nH]c7cn6)c(C6CC6)n5)C4)cc3C2=O)C(=O)N1 (stereo partly drawn) [GS-293, 5-(((trans-3-(3-Cyclopropyl-4-(1H-pyrazolo[3,4-c]pyridin-5-yl)-1H-pyrazol-1-yl)cyclobutyl)methyl)amino)-2-(2,6-dioxopiperidin-3-yl)isoindoline-1,3-dione] | 
> 1000 | 10 to 100 | 100 to 1000 | 100 to 1000 | O=C1CCC(N2C(=O)c3ccc(NCCCCC(=O)N4CCC(n5cc(-c6cnc7ccccc7n6)cn5)CC45CC5)cc3C2=O)C(=O)N1 (stereo not drawn) [GS-153, 2-(2,6-Dioxopiperidin-3-yl)-5-((5-oxo-5-(7-(4-(quinoxalin-2-yl)-1H-pyrazol-1-yl)-4-azaspiro[2.5]octan-4-yl)pentyl)amino)isoindoline-1,3-dione] | 
100 to 1000 | < 10 | 10 to 100 | < 10 | CN1CCN(c2cccc3nc(-c4cnn([C@H]5C[C@H](CCCNc6ccc7c(c6)C(=O)N(C6CCC(=O)NC6=O)C7=O)C5)c4)cnc23)CC1 (stereo partly drawn) [GS-404, 2-(2,6-Dioxopiperidin-3-yl)-5-((3-(trans-3-(4-(5-(4-methylpiperazin-1-yl)quinoxalin-2-yl)-1H-pyrazol-1-yl)cyclobutyl)propyl)amino)isoindoline-1,3-dione] | 
> 1000 | < 10 | 10 to 100 | < 10 | CN1C[C@H]2C[C@@H]1CN2c1ccc2ncc(-c3cnn([C@H]4C[C@H](CCCNc5ccc6c(c5)C(=O)N(C5CCC(=O)NC5=O)C6=O)C4)c3)nc2c1 (stereo partly drawn) [GS-411, 2-(2,6-dioxopiperidin-3-yl)-5-((3-(trans-3-(4-(7-((1R,4R)-5-methyl-2,5-diazabicyclo[2.2.1]heptan-2-yl)quinoxalin-2-yl)-1H-pyrazol-1-yl)cyclobutyl)propyl)amino)isoindoline-1,3-dione] | 
